The values below come from patent publication US20250034201A1, “PRODRUGS OF GANAXOLONE” (priority 2022, published 2025).

≈ marks a conversion by molar mass, not a printed value. Read-outs that look alike come from different tables or passages of the source.

A short description of series [1]: Measured solubility in buffer, LC-MS/MS. The series is classed as physicochemical. The settings on record: aqueous buffer, thermodynamic from solid. As for the experimental part: […] The mixture was vortexed and a magnetic stirring bar was subsequently added to the vial. The vial was placed on a magnetic stirrer with constant stirring for 16-24 hours at room temperature. The pH of the top layer solution was measured. Subsequently, 200 μL of the top layer solution was placed in a 1.5 mL microcentrifuge tube and centrifuged at 18,000 g for 10 min at room temperature. A 10 μL aliquot of supernatant was added to 990 μL of methanol:water (1/:1, v/v) and vortexed. Then, one volume of acetonitrile containing internal standard was added to one volume of the above 100-fold diluted solution and the resulting solution was vortexed and placed in 96-well plate for LC-MS/MS analysis. […] LC-MS-MS analysis was performed utilizing multiple reaction monitoring for detection of characteristic ions for each test compound, additional related analytes and internal standard.

Series [2] can be described thus: Stability in simulated gastric fluid (SGF). The note with it: SGF with pepsin pH 1.2, 37° C. The series is classed as in vitro ADME. As for the experimental part:
(§1) The stability of exemplary compounds in simulated gastric fluid (SGF) and simulated intestinal fluid (SIF) was tested according to the following protocol.

A short description of series [3]: Stability in simulated intestinal fluid (SIF). It is filed as in vitro ADME. The note with it: SIF with pancreatin pH 6.8, 37° C.; for half-life: simulated gi fluid, 2 μg/mL, read-out: SIF t1/2. As for the experimental part: as §1
Series [4] in a line: Rat liver microsomal stability. The series is classed as in vitro ADME. The note with it: for half-life / microsomal CLint: rat liver microsomes 0.5 mg/mL, with NADPH; for half-life / microsomal CLint / Rat Liver Microsomal Stability no NADPH, % remain 1 h: compound 0.5 μM; for half-life: 37° C., read-out: Rat Liver Microsomal Stability t1/2; for microsomal CLint: read-out: Rat Liver Microsomal Stability CLint (uL/min/mg liver). As for the experimental part:
(§2) For several compounds only human liver microsomal stability was tested. […] The microsomal assays were carried out with and without the addition of NADPH at a final concentration of 1 mM. For negative control samples, NADPH reagent was not added. […] Note that compounds undergo only Phase I metabolism in liver microsomes.
(§3) CLint=the intrinsic hepatic clearance (uL/min/mg), where CLint is equal to 0.693/(t1/2×Cmp)

A short description of series [5]: in vitro. It is filed as in vitro ADME, human. The settings on record: for half-life / microsomal CLint: human liver microsomes 0.5 mg/mL, with NADPH; for half-life / microsomal CLint / Human Liver Microsomal Stability no NADPH, % remain 1 h: compound 0.5 μM; for half-life: 37° C., read-out: Human Liver Microsomal Stability t1/2; for microsomal CLint: read-out: Human Liver Microsomal Stability CLint (uL/min/mg liver) (converted). As for the experimental part:
as §2
For orientation: Liver microsomes are vesicles of endoplasmic reticulum, rich in cytochrome P450 enzymes.

Series [6] in a line: Dog liver microsomal stability. The series is classed as in vitro ADME. The settings on record: for microsomal CLint / half-life: dog liver microsomes 0.5 mg/mL, compound 0.5 μM; for microsomal CLint: read-out: Dog Liver Microsomal Stability CLint (uL/min/mg liver); for half-life: read-out: Dog Liver Microsomal Stability t1/2; for Dog Liver Microsomal Stability no NADPH, % remain 1 h: dog liver microsomes. As for the experimental part: as §2, §3
Certain compounds were also tested in mice and dog liver microsome assays according to the protocol outlined above. […].

The nature of series [7]: in vitro. The settings on record: for Human plasma t90 / Rat plasma t90: 2 μg/mL, 37° C.; for Observations: stability / GNX production in human plasma / half-life / Observations: stability / GNX production in rat plasma: plasma. As for the experimental part:
The plasma stability of exemplary compounds was tested using rat, mice, dog, and human plasma, according to the following protocol. For each test compound, samples at a final concentration of 2 μg/mL were prepared in blank plasma of selected species. All samples were incubated at 37° C. on a 150-RPM orbital shaker, and an aliquot was removed at pre-determined time points (0, 15, 30, 60, and 120 minutes). Samples were precipitated with three volumes of acetonitrile containing propranolol as internal standard, and centrifuged for 10 min at 2000 g before LC/MS/MS analysis of the supernatant solutions.

A further series is described as follows: Dog plasma stability. The series is classed as in vitro ADME. The note with it: dog plasma; for Dog plasma t90 / half-life: 2 μg/mL, 37° C.; for half-life: read-out: Dog plasma Half life (t1/2).
Where [8] appears, read: pH 7.4, 50 mM phosphate buffer, 16-24 hours, room temperature, read-out: Solubility pH 7.4.
Setting [9] is: buffer, pH 2.0, room temperature, read-out: Solubility pH 2.0.

On to `CC(=O)[C@H]1CC[C@H]2[C@@H]3CC[C@H]4C[C@](C)(OC(=O)CNC(C)(C)C(=O)O)CC[C@]4(C)[C@H]3CC[C@]12C` [Compound 120], for which the solubility in series [1] (setting [8]) was 35 µg/mL (≈ 73.6 µM). For the same compound, the solubility in series [1] (setting [9]) is 39 µg/mL (≈ 82 µM). Further, the “SGF (% remain, 60 min)” value in series [2] is given as 83%. The half-life in series [2] (simulated gi fluid, 2 μg/mL, read-out: SGF t1/2) is 250 min. In series [3], the “SIF (% remain, 60 min)” value was 74% and the half-life is 199 min. Also, in series [4] (rat liver microsomes), the “Comments: production of GNX (ganaxolone) in rat liver microsomes” value is recorded as “In rat no GNX produced;” and the “Rat Liver Microsomal Stability no NADPH, % remain 1 h” value amounted to 72%. Moreover, in series [4], the half-life amounted to 36 min and the microsomal CLint amounted to 38 µL/min/mg. Moreover, in “in vitro [5]”, the half-life was 16 min and the microsomal CLint was 86 µL/min/mg. The “Human Liver Microsomal Stability no NADPH, % remain 1 h” value in “in vitro [5]” (human liver microsomes) was 8%. Moreover, in series [6], the microsomal CLint came out at 17 µL/min/mg; the half-life amounted to 81 min; the “Dog Liver Microsomal Stability no NADPH, % remain 1 h” value is 83%. For the same compound, in “in vitro [7]”, the “Human plasma t90” value came to 218 min and the “Rat plasma t90” value stood at 78 min. Also, in “in vitro [7]” (human), the “Observations: stability / GNX production in human plasma” value is listed as “No GNX produced in rat,” and the half-life is 24.8 h. In addition, in “in vitro [7]” (rat), the “Observations: stability / GNX production in rat plasma” value is “No GNX produced in rat,” and the half-life came to 8.67 h. Also, in “Dog plasma stability”, the “Observations: stability / GNX production in dog plasma” value is “No GNX produced in rat,”, the “Dog plasma t90” value was 88 min and the half-life worked out at 9.72 h.

With `CC(=O)[C@H]1CC[C@H]2[C@@H]3CC[C@H]4C[C@](C)(OC(=O)COC(=O)CN5CCOCC5)CC[C@]4(C)[C@H]3CC[C@]12C` [Compound 200], the solubility is 29 µg/mL (≈ 56 µM) in series [1] (setting [8]) and 11800 µg/mL (≈ 22800 µM) in series [1] (setting [9]). Further, the “SGF (% remain, 60 min)” value in series [2] was 99.0%. Moreover, in series [3], the “SIF (% remain, 60 min)” value is on record as 31%. The half-life is 12.1 min in series [4], 6 min in the series “in vitro [5]”, 0.243 h in “in vitro [7]” (human) and 0.158 h in “in vitro [7]” (rat). Also, the values for the microsomal CLint (in series [4]; in the series “in vitro [5]”) were 115 µL/min/mg and 229 µL/min/mg, respectively. Also, the “Rat Liver Microsomal Stability no NADPH, % remain 1 h” value in series [4] (rat liver microsomes) turned out to be 7.5%. Moreover, the “Human Liver Microsomal Stability no NADPH, % remain 1 h” value in “in vitro [5]” (human liver microsomes) is recorded as 1%. Also, in “in vitro [7]”, the “Human plasma t90” value amounted to 2.19 min. Moreover, in the series “in vitro [7]”, the “Rat plasma t90” value is listed as 1.4 min. In addition, the “Observations: stability / GNX production in rat plasma” value in “in vitro [7]” (rat) is on record as “In rat, compound converted”.

Regarding `CC(=O)[C@H]1CC[C@H]2[C@@H]3CC[C@H]4C[C@](C)(OC(=O)CO)CC[C@]4(C)[C@H]3CC[C@]12C` [Compound 201], the solubility in series [1] (setting [8]) turned out to be 33 µg/mL (≈ 84.5 µM). Besides, the solubility in series [1] (setting [9]) amounted to 36 µg/mL (≈ 92.2 µM). Besides, in series [3], the “SIF (% remain, 60 min)” value was 98.0% and the half-life was 1580 min. Moreover, in series [4], the half-life came out at 32.4 min and the microsomal CLint was found to be 42.7 µL/min/mg. The “Rat Liver Microsomal Stability no NADPH, % remain 1 h” value in series [4] (rat liver microsomes) was found to be 99.5%. For the same compound, in the series “in vitro [5]” (human liver microsomes), the “Comments: production of GNX (ganaxolone) in human liver microsomes” value is on record as “In human, GNX produced” and the “Human Liver Microsomal Stability no NADPH, % remain 1 h” value is on record as 70%. Also, in “in vitro [5]”, the half-life was found to be 17.4 min and the microsomal CLint is 79.5 µL/min/mg. In “in vitro [7]”, the “Human plasma t90” value is reported as 313 min and the “Rat plasma t90” value is on record as 82 min. Also, in “in vitro [7]” (human), the “Observations: stability / GNX production in human plasma” value is recorded as “compound very slowly” and the half-life is 34.6 h. In “in vitro [7]” (rat), the “Observations: stability / GNX production in rat plasma” value was “compound very slowly” and the half-life turned out to be 9.05 h.

Consider `CC(=O)OCCN(CCOC(C)=O)CC(=O)OC(C)(C)C(=O)OCC(=O)O[C@]1(C)CC[C@@]2(C)[C@@H](CC[C@@H]3[C@@H]2CC[C@]2(C)[C@@H](C(C)=O)CC[C@@H]32)C1` [Compound 229], for which the solubility was 11 µg/mL (≈ 15.6 µM) in series [1] (setting [8]) and 22 µg/mL (≈ 31.2 µM) in series [1] (setting [9]). In addition, the half-life worked out at 6.1 min in “in vitro [5]” and 6.2 min in series [6]. In addition, the microsomal CLint was 227 µL/min/mg in the series “in vitro [5]” and 224 µL/min/mg in series [6]. Moreover, the “Human Liver Microsomal Stability no NADPH, % remain 1 h” value in the series “in vitro [5]” (human liver microsomes) was found to be 1%. Moreover, in series [6], the “Dog Liver Microsomal Stability no NADPH, % remain 1 h” value was determined as 1%.

Turning to `CC(=O)[C@H]1CC[C@H]2[C@@H]3CC[C@H]4C[C@](C)(O)CC[C@]4(C)[C@H]3CC[C@]12C` [ganaxolone, Ganaxolone], the figures for the solubility in series [1] (setting [8]) and in series [1] (setting [9]) were 4 µg/mL (≈ 12 µM) and 2 µg/mL (≈ 6.01 µM), respectively. In addition, the “SGF (% remain, 60 min)” value in series [2] is 95.6%. Besides, the “SIF (% remain, 60 min)” value in series [3] is recorded as 94.6%. For the same compound, the half-life in series [4] came out at 12 min; in “in vitro [5]” it was 12.6 min; in series [6], 49.8 min; in “in vitro [7]” (human), 23.4 h; in “in vitro [7]” (rat) it was 10.4 h; in the series “Dog plasma stability”, 62.4 h. Also, the microsomal CLint in series [4] was 116 µL/min/mg; in “in vitro [5]”, 110 µL/min/mg; in series [6], 27.8 µL/min/mg. Besides, the “Rat Liver Microsomal Stability no NADPH, % remain 1 h” value in series [4] (rat liver microsomes) was found to be 98.0%. Moreover, the “Human Liver Microsomal Stability no NADPH, % remain 1 h” value in the series “in vitro [5]” (human liver microsomes) was 99.0%. Besides, the “Dog Liver Microsomal Stability no NADPH, % remain 1 h” value in series [6] amounted to 43.6%. For the same compound, the “Human plasma t90” value in “in vitro [7]” is on record as 211.0 min. In “in vitro [7]”, the “Rat plasma t90” value is 94.2 min. Also, in the series “Dog plasma stability”, the “Dog plasma t90” value turned out to be 564 min.

What is called solubility is the concentration that dissolves in the medium under given conditions.
